Among the data in US9850257B2, “Tricyclic heterocycles as BET protein inhibitors” (Incyte Corporation, priority 2013, dated 2017) are IC50 values, retold here.

In assay [1] the test system is KMS.12.BM cell line (human myeloma). Nature of the assay: KMS.12.BM cell viability assay. The note with it: 72 h, KMS.12.BM cells, 3 days, Cell Titer-GLO ATP quantitation, read-out: KMS cellular IC50. The class given is cell-based. The protocol: KMS.12.BM Cell Viability Assay
KMS.12.BM cell line (human myeloma) was purchased from JCRB (Osaka, Japan) and maintained in RPMI with 10% FBS culture medium. To measure the cytotoxic activity of the compounds through ATP quantitation, the KMS. 12.BM cells are plated in the RPMI culture medium at 5000 cells/well/per 100 μL into a 96-well polystyrene clear black tissue culture plate (Greiner-bio-one through VWR, NJ), in the presence or absence of a concentration range of test compounds. After 3 days, […] Cell Titer-GLO Luminescent (Promega, Madison, Wis.) cell culture agent is added to each well for 10 minutes at room temperature to stabilize the luminescent signal. This determines the number of viable cells in culture based on quantitation of the ATP present, which signals the presence of metabolically active cells. Luminescence is measured with the Top Count 384 (Packard Bioscience through Perkin Elmer, Boston, Mass.). Compound inhibition is determined relative to cells cultured with no drug and the IC50 reported as the compound concentration required for 50% cell death.
(Cellular ATP, detected with luciferase, serves as a proxy for viable cell number.)

The target in another assay is BRD4-BD2 (Homo sapiens (Human), UniProt O60885). In words: BRD4 AlphaScreen assay (BD2). In kind it is binding. The note with it: biotin-labeled tetra-acetylated histone H4 peptide, 20 nM BRD4-BD2, read-out: BRD4 BD-2 enzyme IC50. The protocol: (§1) BRD4-BD1 and BRD4-BD2 assays were conducted in white 384-well polystyrene plate in a final volume of 20 μL for BD1 and 40 μL for BD2. Inhibitors were first serially diluted in DMSO and added to the plate wells before the addition of other reaction components. The final concentration of DMSO in the assay was 1.25% (BD1) and 0.83% (BD2). The assays were carried out at room temperature for 75 min. in the assay buffer (50 mM HEPES, pH 7.4, 100 mM NaCl, 0.05% CHAPS, 0.01% BSA), containing 50 nM Biotin-labeled tetra-acetylated histone H4 peptide (H4Ac4), 3.8 nM (BRD4-BD1, BPS Bioscience #31040) or 20 nM (BRD4-BD2, BPS Bioscience #31041). The reaction followed by the addition of 20 μL of assay buffer supplemented with Streptavidin donor beads (PerkinElmer 6760002) and GSH Acceptor beads (PerkinElmer-AL109C) at 4 jag/mL under reduced light. After plate sealing, the plate was incubated in the dark at room temperature for 75 min. before reading on a PHERAstar FS plate reader (BMG Labtech). IC50 determination was performed by fitting the curve of percent control activity versus the log of the inhibitor concentration using the GraphPad Prism 5.0 software.
A general note: Alpha assays give light when donor and acceptor beads are brought close together.

The target of a further assay is BRD4-BD1 (Homo sapiens (Human), UniProt O60885). Nature of the assay: BRD4 AlphaScreen assay (BD1). In kind it is binding. The note with it: biotin-labeled tetra-acetylated histone H4 peptide, 3.8 nM BRD4-BD1, read-out: BRD4 BD-1 enzyme IC50. The protocol: as §1

Where a name gives a salt, the structure may show the parent alone.

As usually defined, the IC50 is the concentration at which inhibition is half-maximal. For the molecule `Cc1noc(C)c1-c1ccc2c(=O)[nH]n3c2c1OCC3c1ccccc1` (centres unmarked) [Example 1, 9-(3,5-Dimethylisoxazol-4-yl)-3-phenyl-2,3-dihydro[1,4]oxazino[2,3,4-hi]indazol-6(5H)-one], the IC50 in assay [1] is no more than 1000 nM; on BRD4-BD2 it was no more than 200 nM; at BRD4-BD1, no more than 200 nM.
As for `Cc1noc(C)c1-c1ccc2c(=O)n(C)n3c2c1OCC3c1ccccc1` (centres unmarked) [Example 2, 9-(3,5-Dimethylisoxazol-4-yl)-5-methyl-3-phenyl-2,3-dihydro[1,4]oxazino[2,3,4-hi]indazol-6(5H)-one], the values for the IC50 (in assay [1]; at BRD4-BD2; at BRD4-BD1) were no more than 1000 nM, no more than 200 nM and no more than 200 nM, respectively.
In the case of `COc1nn2c3c(c(-c4c(C)noc4C)ccc13)OCC2c1ccccc1` (centres unmarked) [Example 3, 9-(3,5-Dimethylisoxazol-4-yl)-6-methoxy-3-phenyl-2,3-dihydro[1,4]oxazino[2,3,4-hi]indazole], the IC50 was no more than 1000 nM in assay [1], no more than 200 nM on BRD4-BD2 and no more than 200 nM at BRD4-BD1.
Regarding `Cc1noc(C)c1-c1ccc2cnn3c2c1OCC3c1ccccc1` (centres unmarked) [Example 4, 9-(3,5-Dimethylisoxazol-4-yl)-3-phenyl-2,3-dihydro[1,4]oxazino[2,3,4-hi]indazole], the half-inhibitory concentration (IC50) in assay [1] was no more than 1000 nM; on BRD4-BD2, no more than 200 nM; on BRD4-BD1, no more than 200 nM.
Consider `Cc1noc(C)c1-c1ccc2c(=O)[nH]n3c2c1OCC3c1ccccn1` (centres unmarked) [Example 5, 9-(3,5-Dimethylisoxazol-4-yl)-3-pyridin-2-yl-2,3-dihydro[1,4]oxazino[2,3,4-hi]indazol-6(5H)-one], for which the results for the IC50 (in assay [1]; at BRD4-BD2; at BRD4-BD1) were no more than 1000 nM, no more than 200 nM and 200 to 1000 nM, respectively.
The like results for `Cc1noc(C)c1-c1ccc2c(=O)n(C)n3c2c1OCC3c1ccccn1` (centres unmarked) [Example 6, 9-(3,5-Dimethylisoxazol-4-yl)-5-methyl-3-pyridin-2-yl-2,3-dihydro[1,4]oxazino[2,3,4-hi]indazol-6(5H)-one] were, in that order, no more than 1000 nM, no more than 200 nM and no more than 200 nM.
For `COc1nn2c3c(c(-c4c(C)noc4C)ccc13)OCC2c1ccccn1` (centres unmarked) [Example 7, 9-(3,5-Dimethylisoxazol-4-yl)-6-methoxy-3-pyridin-2-yl-2,3-dihydro[1,4]oxazino[2,3,4-hi]indazole], the half-inhibitory concentration (IC50) in assay [1] was no more than 1000 nM; at BRD4-BD2, no more than 200 nM; at BRD4-BD1 it was no more than 200 nM.
For the molecule `Cc1noc(C)c1-c1ccc2cnn3c2c1OCC3c1ccccn1` (centres unmarked) [Example 8, 9-(3,5-Dimethylisoxazol-4-yl)-3-pyridin-2-yl-2,3-dihydro[1,4]oxazino[2,3,4-hi]indazole trifluoroacetate], the results for the half-maximal inhibitory concentration (IC50) (in assay [1]; at BRD4-BD2; on BRD4-BD1) were no more than 1000 nM, no more than 200 nM and no more than 200 nM, respectively.
For `Cc1noc(C)c1-c1cc(Br)c2cnn3c2c1OCC3c1ccccc1` (centres unmarked) [Example 9, 7-Bromo-9-(3,5-dimethylisoxazol-4-yl)-3-phenyl-2,3-dihydro[1,4]oxazino[2,3,4-hi]indazole], the IC50 in assay [1] was 1000 to 10000 nM; on BRD4-BD2, no more than 200 nM; on BRD4-BD1 it was 200 to 1000 nM.
On the same counts, the results for `Cc1noc(C)c1-c1ccc2c(=O)[nH]n3c2c1OCC3c1cccnc1` (centres unmarked) [Example 10, 9-(3,5-Dimethylisoxazol-4-yl)-3-pyridin-3-yl-2,3-dihydro[1,4]oxazino[2,3,4-hi]indazol-6(5H)-one] are 1000 to 10000 nM, no more than 200 nM and 200 to 1000 nM.
Take `Cc1noc(C)c1-c1ccc2c(=O)n(C)n3c2c1OCC3c1cccnc1` (centres unmarked) [Example 11, 9-(3,5-Dimethylisoxazol-4-yl)-5-methyl-3-pyridin-3-yl-2,3-dihydro[1,4]oxazino[2,3,4-hi]indazol-6(5H)-one]: the IC50 in assay [1] was no more than 1000 nM; on BRD4-BD2, no more than 200 nM; at BRD4-BD1, no more than 200 nM.
On to `COc1nn2c3c(c(-c4c(C)noc4C)ccc13)OCC2c1cccnc1` (centres unmarked) [Example 12, 9-(3,5-Dimethylisoxazol-4-yl)-6-methoxy-3-pyridin-3-yl-2,3-dihydro[1,4]oxazino[2,3,4-hi]indazole], for which the half-inhibitory concentration (IC50) is no more than 1000 nM in assay [1], no more than 200 nM at BRD4-BD2 and no more than 200 nM on BRD4-BD1.
`Cc1noc(C)c1-c1cc(F)c2nnn3c2c1OCC3c1cccnc1` (centres unmarked) [Example 13, 7-(3,5-Dimethylisoxazol-4-yl)-9-fluoro-4-pyridin-3-yl-4,5-dihydro[1,2,3]triazolo[1,5,4-de][1,4]benzoxazine trifluoroacetate]: the figures for the IC50 at BRD4-BD2 and at BRD4-BD1 were 200 to 1000 nM and greater than 1000 nM, respectively.
